The record followed here is US12559481B2, “Quinoline derivatives” (ELANCO ANIMAL HEALTH GMBH, priority 2018, dated 2026).

Data set [1] concerns Dirofilaria immitis third-stage larvae. The experiment in a line: In vitro assay 5: Dirofilaria immitis (DIROIM L4) larval motility. The note with it: 72 h, read-out: EC50 (reduction of motility).
The next data set has as its target D. immitis Slo-1 (Dirofilaria immitis, UniProt I0DFK5). The experiment in a line: In vitro assay 2: D. immitis Slo-1, membrane potential in recombinant CHO cell line. Type of data set: cell-based.
The subject of data set [2] is Adult Nippostrongylus brasiliensis. Description: In vitro assay 3: Nippostrongylus brasiliensis (NIPOBR), acetylcholine esterase readout. The note with it: read-out: activity (reduction of AChE compared to negative control); for inhibition at 1 µg/mL: 1 μg/ml; for inhibition at 10 µg/mL: 10 μg/ml. How it is done:
In Vitro Assay 3: Nippostrongylus Brasiliensis (NIPOBR)
Adult Nippostrongylus brasiliensis were washed with saline buffer containing 100 U/ml penicillin, 0.1 mg/ml streptomycin and 2.5 μg/ml amphotericin B. Test compounds were dissolved in DMSO and worms were incubated in medium in a final concentration of 10 μg/ml (10 ppm) respectively 1 μg/ml (1 ppm). An aliquot of the medium was used to determine the acetylcholine esterase activity in comparison to a negative control. The principle of measuring acetylcholine esterase as readout for anthelmintic activity was described in Rapson et al (1986) and Rapson et al (1987).

For data set [3], the system named is Dirofilaria immitis microfilariae. The experiment in a line: In vitro assay 4: Dirofilaria immitis microfilariae (DIROIM L1) motility. The note with it: 72 h, read-out: EC50 (reduction of motility).
For the next data set, the system named is Cooperia curticei. Description: In vitro assay 6: Cooperia curticei (COOPCU) larval mortality. The note with it: 120 h, read-out: activity (larval mortality).
The test system of a further data set is Haemonchus contortus. Description: In vitro assay 7: Haemonchus contortus (HAEMCO) larval mortality. The note with it: 120 h, read-out: activity (larval mortality).
The next data set deals with C. elegans Slo-1a (Caenorhabditis elegans, UniProt Q95V25).
Chain of C. elegans Slo-1a (Q95V25 whole entry): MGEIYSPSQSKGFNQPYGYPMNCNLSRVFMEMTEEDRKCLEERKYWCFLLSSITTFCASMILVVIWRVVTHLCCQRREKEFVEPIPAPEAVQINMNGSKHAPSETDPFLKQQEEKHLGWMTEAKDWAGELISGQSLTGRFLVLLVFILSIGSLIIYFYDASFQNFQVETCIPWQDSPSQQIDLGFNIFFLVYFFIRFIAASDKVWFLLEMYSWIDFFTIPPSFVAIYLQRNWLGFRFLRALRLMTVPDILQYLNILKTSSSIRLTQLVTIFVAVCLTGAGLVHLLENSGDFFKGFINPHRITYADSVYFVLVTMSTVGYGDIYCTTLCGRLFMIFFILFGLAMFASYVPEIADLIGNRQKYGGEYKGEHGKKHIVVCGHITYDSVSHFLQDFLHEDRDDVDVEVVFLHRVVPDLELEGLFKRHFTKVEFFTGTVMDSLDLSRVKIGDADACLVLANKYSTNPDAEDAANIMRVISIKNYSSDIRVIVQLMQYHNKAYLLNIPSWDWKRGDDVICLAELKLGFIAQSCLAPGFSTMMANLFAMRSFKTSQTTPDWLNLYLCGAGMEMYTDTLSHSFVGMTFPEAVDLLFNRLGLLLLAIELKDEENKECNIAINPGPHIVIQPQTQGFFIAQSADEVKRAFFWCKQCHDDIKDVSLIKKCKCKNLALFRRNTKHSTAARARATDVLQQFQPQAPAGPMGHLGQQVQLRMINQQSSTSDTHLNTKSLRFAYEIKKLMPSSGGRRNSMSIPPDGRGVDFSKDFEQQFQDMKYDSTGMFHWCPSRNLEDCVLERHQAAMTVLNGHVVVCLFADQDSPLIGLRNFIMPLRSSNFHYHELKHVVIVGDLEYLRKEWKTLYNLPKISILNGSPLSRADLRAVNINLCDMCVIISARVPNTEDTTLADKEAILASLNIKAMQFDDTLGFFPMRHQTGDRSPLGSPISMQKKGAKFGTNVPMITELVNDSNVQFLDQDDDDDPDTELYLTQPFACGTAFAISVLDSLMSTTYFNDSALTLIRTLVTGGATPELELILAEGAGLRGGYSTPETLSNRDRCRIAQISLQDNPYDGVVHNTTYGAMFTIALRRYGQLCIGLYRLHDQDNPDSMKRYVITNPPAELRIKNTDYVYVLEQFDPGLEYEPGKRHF
Data set [4] in a line: log P by HPLC on reversed phase columns (LC-MS Method 0).
Experimental: Measurement of log P values was performed according to EEC directive 79/831 Annex V.A8 by HPLC (High Performance Liquid Chromatography) on reversed phase columns with the following methods, instrument(s): Agilent 1100 LC system, Agilent MSD system, HTS PAL; Waters IClass Acquity UPLC, SQD2 (MS), PDA (LV). • ^[a] log P value is determined by measurement of LC-UV, in an acidic range, with 0.1% formic acid in water and acetonitrile as eluent (linear gradient from 10% acetonitrile to 95% acetonitrile). • ^[b] log P value is determined by measurement of LC-UV, in a neutral range, with 0.001 molar ammonium acetate solution in water and acetonitrile as eluent (linear gradient from 10% acetonitrile to 95% acetonitrile).
Calibration was done with straight-chain alkan-2-ones (with 3 to 16 carbon atoms) with known log P values (measurement of log P values using retention times with linear interpolation between successive alkanones). Lambda-max-values were determined using UV-spectra from 200 nm to 400 nm and the peak values of the chromatographic signals.

Chain of D. immitis Slo-1 (I0DFK5 1-1119): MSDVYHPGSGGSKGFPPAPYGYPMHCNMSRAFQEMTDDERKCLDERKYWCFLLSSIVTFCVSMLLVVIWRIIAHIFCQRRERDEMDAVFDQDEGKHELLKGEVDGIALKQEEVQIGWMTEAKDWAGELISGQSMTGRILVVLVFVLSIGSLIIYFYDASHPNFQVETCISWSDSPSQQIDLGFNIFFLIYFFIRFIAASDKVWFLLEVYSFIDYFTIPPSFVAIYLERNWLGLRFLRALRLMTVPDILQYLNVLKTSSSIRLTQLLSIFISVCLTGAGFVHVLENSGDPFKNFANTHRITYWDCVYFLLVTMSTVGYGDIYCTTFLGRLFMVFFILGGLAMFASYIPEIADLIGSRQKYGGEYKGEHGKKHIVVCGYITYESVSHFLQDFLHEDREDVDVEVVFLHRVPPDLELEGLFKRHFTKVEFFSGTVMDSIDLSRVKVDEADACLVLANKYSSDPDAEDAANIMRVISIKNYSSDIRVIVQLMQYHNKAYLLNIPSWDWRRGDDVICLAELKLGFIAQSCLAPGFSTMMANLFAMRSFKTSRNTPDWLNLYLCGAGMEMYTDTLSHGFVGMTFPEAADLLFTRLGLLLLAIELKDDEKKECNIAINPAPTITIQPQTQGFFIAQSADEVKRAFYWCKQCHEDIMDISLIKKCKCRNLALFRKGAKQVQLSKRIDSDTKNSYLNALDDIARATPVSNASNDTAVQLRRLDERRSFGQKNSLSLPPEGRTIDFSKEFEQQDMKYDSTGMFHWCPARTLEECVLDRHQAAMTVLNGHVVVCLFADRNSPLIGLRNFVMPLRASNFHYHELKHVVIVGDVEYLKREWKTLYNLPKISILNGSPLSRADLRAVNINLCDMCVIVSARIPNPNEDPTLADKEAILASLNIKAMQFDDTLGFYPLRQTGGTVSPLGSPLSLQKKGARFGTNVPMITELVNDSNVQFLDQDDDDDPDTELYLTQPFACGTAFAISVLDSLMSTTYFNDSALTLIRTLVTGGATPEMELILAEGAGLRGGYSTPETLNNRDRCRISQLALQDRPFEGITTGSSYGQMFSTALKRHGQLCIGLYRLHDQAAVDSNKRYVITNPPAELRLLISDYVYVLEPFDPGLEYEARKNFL
Experimental for C. elegans Slo-1a: In Vitro Assay 1: C. elegans Slo-1a—Action at a Recombinant C. elegans Cell Line
Generation of a Stable C. elegans CHO Cell Line
For transfection with plasmid DNA to express C. elegans Slo-1a (accession number AAL28102) CHO cells were passaged to 40% confluence before adding the transfection solution to the cell culture. The transfection solution included 300 μL OptiMEM (Life Technologies, Nr.: 31985), 2 μL (=6 μg) of plasmid DNA containing the C. elegans Slo 1a gene and 9 μL FugeneHD (Promega, Nr.: E2311), and was added to the cells prior to incubation for 48 hours at 37° C., 5% CO2. The transfection medium was exchanged for the selection medium which contains additional G418 (2 mg/ml, Invitrogen, Nr.: 10131) and the cells were seeded into 384 well plates (300 cells/well). After a few weeks, the remaining surviving cells were tested with a voltage sensitive dye (Membrane Potential Assay Kit, Molecular Devices Nr.: R8034) for K+ channel expression. Positive cell clones were purified by the limited dilution technique. For this the clone with the highest and most robust signal in the voltage sensitive dye assay was further subcloned (incubated) in 384 well plates (0.7 cells/well) in order to obtain clonal purity. This generated a final stable CHO cell line expressing the C. elegans Slo-1a.
Cells were cultured at 37° C., and 5% CO2 in MEMalpha with Glutamax I (Invitrogen, Nr.: 32571), supplemented with 10% (v/v) heat inactivated fetal bovine serum (Invitrogen, Nr.: 10500), G418 (1 mg/ml. Invitrogen. Nr.: 10131). Cells were detached using Accutase (Sigma. Nr.: A6964).
Membrane Potential Measurements
Laboratory compound testing was performed on 384-well microtiter plates (MTPs, Greiner, Nr.: 781092), 8000 cells/well were plated onto 384-well MTPs and cultured for 20 to 24 hours at 37° C., and 5% CO2. After removal of the cell culture medium, the cells were washed once with tyrode (150 mM NaCl, 0.3 mM KCl, 2 mM CaCl2. 1 mM MgCl2. 0.8 mM NaH2PO4, 5 mM Glucose, 28 mM Hepes, pH 7.4) and then loaded with the voltage sensitive dye of the Membrane Potential Assay Kit diluted in tyrode for 1 h at room temperature.
After starting the measurement of fluorescence using a FLIPR Tetra (Molecular Devices, Exc. 510-545 nm, Emm. 565-625 nm), test compounds were added followed by the addition of KCl tyrode (final assay concentration: 70 mM KCl, 2 mM CaCl2, 1 mM MgCl2, 0.8 mM NaH2PO4, 5 mM Glucose, 28 mM Hepes, pH 7.4, including the voltage sensitive dye). The measurement was completed after 7 minutes.
The data were evaluated by using the ActivityBase XLfit software (IDBS) for curve fitting and calculation of the half-maximal effective concentration (EC50) and are reported as negative decadic logarithm (pE50).
Experimental for Cooperia curticei: In Vitro Assay 6: Cooperia curticei (COOPCU)
Solvent: Dimethyl Sulfoxide
Approximately 40 nematode larvae (Cooperia curticei) are transferred into a test tube containing the compound solution.
After 5 days percentage of larval mortality is recorded. 100% efficacy means all larvae are killed; 0% efficacy means no larvae are killed.
Experimental for Haemonchus contortus: In Vitro Assay 7: Haemonchus contortus (HAEMCO)
Solvent: Dimethyl Sulfoxide
Approximately 40 larvae of the red stomach worm (Haemonchus contortus) are transferred into a test tube containing compound solution.
After 5 days the percentage of larval mortality is recorded. 100% efficacy means all larvae are killed, 0% efficacy means no larvae are killed.

One may read the EC50 as the concentration at which the effect is half-maximal. For `O=C(NC1COc2ccccc21)c1cnc2c(-c3cc(F)cc(F)c3F)cccc2c1C1CCOCC1` (racemic) [Example 17], the EC50 is less than 0.1 µg/mL in data set [1], 316 to 5010 nM at D. immitis Slo-1 and less than 0.1 µg/mL in data set [3]. Also, the inhibition at 1 µg/mL in data set [2] was more than 80%. In addition, the inhibition at 10 µg/mL in data set [2] is more than 80%.

Usually mortality stands for the percentage killed. Turning to `O=C(N[C@H]1CCOc2ccccc21)c1cnc2c(-c3cc(F)cc(F)c3F)cccc2c1C1=CCOCC1` [Example 1, N-[(4S)-3,4-Dihydro-2H-chromen-4-yl]-4-(3,6-dihydro-2H-pyran-4-yl)-8-(2,3,5-trifluorophenyl)quinoline-3-carboxamide], the concentration giving a half-maximal response (EC50) is less than 0.1 µg/mL in data set [1], 31.6 to 316 nM at D. immitis Slo-1, less than 0.1 µg/mL in data set [3] and less than 3.16 nM at C. elegans Slo-1a. Also, in the data set with Cooperia curticei, the mortality at 0.8 ppm was found to be 90%. For the same molecule, the mortality at 4 ppm with Cooperia curticei worked out at 90%. Moreover, the mortality at 20 ppm with Cooperia curticei came out at 90%; with Haemonchus contortus, 80%. Also, in data set [2], the inhibition at 1 µg/mL was more than 80%.

As for `O=C(N[C@H]1CCOc2ccccc21)c1cnc2c(-c3cc(F)cc(F)c3F)c(F)ccc2c1C1CCOCC1` [Example 3, N-[(4S)-3,4-Dihydro-2H-chromen-4-yl]-7-fluoro-4-(tetrahydro-2H-pyran-4-yl)-8-(2,3,5-trifluorophenyl)quinoline-3-carboxamide], the EC50 in data set [1] was less than 0.1 µg/mL; on D. immitis Slo-1, 3.16 to 31.6 nM; in data set [3], less than 0.1 µg/mL. Moreover, the inhibition at 1 µg/mL in data set [2] is more than 80%. Besides, the inhibition at 10 µg/mL in data set [2] was more than 80%.

For `CCc1c(C(=O)N[C@H]2CCOc3ccccc32)cnc2c(-c3cc(F)cc(F)c3F)c(F)ccc12` [Example 4, N-[(4S)-3,4-Dihydro-2H-chromen-4-yl]-4-ethyl-7-fluoro-8-(2,3,5-trifluorophenyl)quinoline-3-carboxamide], the EC50 in data set [1] is less than 0.1 µg/mL; at D. immitis Slo-1 it was 3.16 to 31.6 nM; in data set [3] it was less than 0.1 µg/mL; on C. elegans Slo-1a, less than 3.16 nM. For the same molecule, in data set [2], the inhibition at 1 µg/mL was more than 80%. Also, in data set [2], the inhibition at 10 µg/mL was more than 80%.

In general, chromatographic logP refers to a lipophilicity value derived from retention on a column. Read a high chromatographic logP as a more lipophilic compound. Turning to `O=C(N[C@H]1CCOc2ccccc21)c1cnc2c(-c3cc(F)cc(F)c3F)c(F)ccc2c1N1CC(F)C1` [Example 5, N-[(4S)-3,4-Dihydro-2H-chromen-4-yl]-7-fluoro-4-(3-fluoroazetidin-1-yl)-8-(2,3,5-trifluorophenyl)quinoline-3-carboxamide], the EC50 was less than 0.1 µg/mL in data set [1], 3.16 to 31.6 nM on D. immitis Slo-1, less than 0.1 µg/mL in data set [3] and 3.16 to 31.6 nM on C. elegans Slo-1a. For the same molecule, the inhibition at 1 µg/mL in data set [2] was more than 80%. The inhibition at 10 µg/mL in data set [2] was more than 80%. Besides, in data set [4], the chromatographic logP was 1.93.

Take `O=C(N[C@H]1CCOc2ccccc21)c1cnc2c(-c3cc(F)cc(F)c3F)c(F)ccc2c1C1=CCOCC1` [Example 6, N-[(4S)-3,4-dihydro-2H-chromen-4-yl]-4-(3,6-dihydro-2H-pyran-4-yl)-7-fluoro-8-(2,3,5-trifluorophenyl)quinoline-3-carboxamide]: the EC50 in data set [1] is less than 0.1 µg/mL; at D. immitis Slo-1, 3.16 to 31.6 nM; in data set [3], less than 0.1 µg/mL. Further, in data set [2], the inhibition at 1 µg/mL was more than 80%. Besides, the inhibition at 10 µg/mL in data set [2] was more than 80%.

As for `COc1ccc2c(C3CCOCC3)c(C(=O)N[C@H]3CCOc4ccccc43)cnc2c1-c1cc(F)cc(F)c1F` [Example 7, N-[(4S)-3,4-dihydro-2H-chromen-4-yl]-7-methoxy-4-(tetrahydro-2H-pyran-4-yl)-8-(2,3,5-trifluorophenyl)quinoline-3-carboxamide], the EC50 in data set [1] was less than 0.1 µg/mL; at D. immitis Slo-1, 3.16 to 31.6 nM; in data set [3], less than 0.1 µg/mL; at C. elegans Slo-1a, less than 3.16 nM. The inhibition at 1 µg/mL in data set [2] was more than 80%. In addition, in data set [2], the inhibition at 10 µg/mL is more than 80%.

With `O=C(NC1CCSc2ccc(F)cc21)c1cnc2c(-c3cc(F)cc(F)c3F)c(F)ccc2c1N1CC(F)C1` (centres unmarked) [Example 8], the EC50 in data set [1] is less than 0.1 µg/mL; on D. immitis Slo-1, 316 to 5010 nM; in data set [3], less than 0.1 µg/mL. In addition, the inhibition at 10 µg/mL in data set [2] is more than 80%.

In the case of `Cc1ccc2c(c1)[C@@H](NC(=O)c1cnc3c(-c4cc(F)cc(F)c4F)c(F)ccc3c1N1CC(F)C1)CCO2` [Example 9], the EC50 in data set [1] is less than 0.1 µg/mL; on D. immitis Slo-1 it was 316 to 5010 nM; in data set [3], less than 0.1 µg/mL. The inhibition at 1 µg/mL in data set [2] is more than 80%. In addition, in data set [2], the inhibition at 10 µg/mL is more than 80%.

`O=C(N[C@H]1CCOc2ccc(F)cc21)c1cnc2c(-c3cc(F)cc(F)c3F)c(F)ccc2c1N1CC(F)C1` [Example 10]: the EC50 in data set [1] was less than 0.1 µg/mL; on D. immitis Slo-1 it was 31.6 to 316 nM; in data set [3], less than 0.1 µg/mL; on C. elegans Slo-1a it was less than 3.16 nM. For the same molecule, the inhibition at 1 µg/mL in data set [2] is more than 80%. Also, the inhibition at 10 µg/mL in data set [2] was more than 80%.

Take `O=C(N[C@H]1CCCc2ccccc21)c1cnc2c(-c3cc(F)cc(F)c3F)c(F)ccc2c1N1CC(F)C1` [Example 11]: the EC50 in data set [1] is less than 0.1 µg/mL; in data set [3], less than 0.1 µg/mL; on C. elegans Slo-1a it was less than 3.16 nM. Moreover, the inhibition at 1 µg/mL in data set [2] is more than 80%. Further, in data set [2], the inhibition at 10 µg/mL is more than 80%.

Take `O=C(N[C@H]1CCc2ccccc21)c1cnc2c(-c3cc(F)cc(F)c3F)c(F)ccc2c1N1CC(F)C1` [Example 12]: the EC50 in data set [1] was less than 0.1 µg/mL; on D. immitis Slo-1, 31.6 to 316 nM; in data set [3] it was less than 0.1 µg/mL; at C. elegans Slo-1a, less than 3.16 nM. Further, the inhibition at 1 µg/mL in data set [2] is more than 80%. Further, the inhibition at 10 µg/mL in data set [2] is more than 80%.

In the case of `CC1(C)C[C@H](NC(=O)c2cnc3c(-c4cc(F)cc(F)c4F)c(F)ccc3c2N2CC(F)C2)c2ccccc2O1` [Example 13], the EC50 was less than 0.1 µg/mL in data set [1], 316 to 5010 nM at D. immitis Slo-1, less than 0.1 µg/mL in data set [3] and 3.16 to 31.6 nM on C. elegans Slo-1a. The inhibition at 10 µg/mL in data set [2] is more than 80%.

With `N#Cc1ccc2c(c1)[C@@H](NC(=O)c1cnc3c(-c4cc(F)cc(F)c4F)c(F)ccc3c1N1CC(F)C1)CCO2` [Example 14], the EC50 in data set [1] is less than 0.1 µg/mL; at D. immitis Slo-1 it was 316 to 5010 nM; in data set [3], less than 0.1 µg/mL; at C. elegans Slo-1a it was 31.6 to 316 nM. In addition, the inhibition at 10 µg/mL in data set [2] is more than 80%.

`O=C(N[C@H]1CCOc2ccccc21)c1cnc2c(-c3cc(F)cc(F)c3F)cccc2c1N1CC(F)C1` [Example 15]: the EC50 in data set [1] is less than 0.1 µg/mL; at D. immitis Slo-1 it was 31.6 to 316 nM; in data set [3] it was less than 0.1 µg/mL; at C. elegans Slo-1a it was less than 3.16 nM. The inhibition at 1 µg/mL in data set [2] is more than 80%. Also, the inhibition at 10 µg/mL in data set [2] is more than 80%.

Turning to `O=C(N[C@H]1CCc2ccccc21)c1cnc2c(-c3cc(F)cc(F)c3F)c(F)ccc2c1C1CCOCC1` [Example 16], the EC50 in data set [1] is less than 0.1 µg/mL; at D. immitis Slo-1, 3.16 to 31.6 nM; in data set [3] it was less than 0.1 µg/mL; on C. elegans Slo-1a, less than 3.16 nM. Besides, in data set [2], the inhibition at 1 µg/mL is more than 80%. Also, the inhibition at 10 µg/mL in data set [2] was more than 80%.

`CC(C)Oc1ccc2c(C3CCOCC3)c(C(=O)N[C@H]3CCOc4ccccc43)cnc2c1-c1cc(F)cc(F)c1F` [Example 18]: the EC50 in data set [1] was less than 0.1 µg/mL; at D. immitis Slo-1, 316 to 5010 nM; in data set [3] it was less than 0.1 µg/mL. For the same molecule, the inhibition at 1 µg/mL in data set [2] is more than 80%. The inhibition at 10 µg/mL in data set [2] was more than 80%.

As to `O=C(N[C@H]1CCc2ccccc21)c1cnc2c(-c3cc(F)cc(F)c3F)cccc2c1C1CCOCC1` [Example 19], the EC50 in data set [1] is less than 0.1 µg/mL; at D. immitis Slo-1, 316 to 5010 nM; in data set [3], less than 0.1 µg/mL; on C. elegans Slo-1a it was less than 3.16 nM. For the same molecule, the inhibition at 1 µg/mL in data set [2] is more than 80%. Further, the inhibition at 10 µg/mL in data set [2] was more than 80%.

On to `O=C(N[C@H]1CCCc2ccccc21)c1cnc2c(-c3cc(F)cc(F)c3F)cccc2c1C1CCOCC1` [Example 20], for which the figures for the EC50 (in data set [1]; on D. immitis Slo-1; in data set [3]) were less than 0.1 µg/mL, 31.6 to 316 nM and less than 0.1 µg/mL, respectively. Besides, the inhibition at 1 µg/mL in data set [2] is more than 80%. In addition, the inhibition at 10 µg/mL in data set [2] was more than 80%.

In the case of `CCc1c(C(=O)N[C@H]2CCOc3ccccc32)cnc2c(-c3cc(F)cc(F)c3F)c(Cl)ccc12` [Example 21], the EC50 in data set [1] is less than 0.1 µg/mL; in data set [3] it was less than 0.1 µg/mL; at C. elegans Slo-1a it was less than 3.16 nM. In data set [2], the inhibition at 1 µg/mL is more than 80%. Also, the inhibition at 10 µg/mL in data set [2] was more than 80%.

In the case of `CCc1c(C(=O)N[C@H]2CCc3ccccc32)cnc2c(-c3cc(F)cc(F)c3F)c(Cl)ccc12` [Example 22], the EC50 was less than 0.1 µg/mL in data set [1], 3.16 to 31.6 nM at D. immitis Slo-1 and less than 0.1 µg/mL in data set [3]. Besides, the inhibition at 1 µg/mL in data set [2] was more than 80%. In addition, in data set [2], the inhibition at 10 µg/mL was more than 80%.

In the case of `O=C(N[C@H]1CCOc2ccccc21)c1cnc2c(Br)c(F)ccc2c1Cl` [Intermediate 14A, 8-Bromo-4-chloro-N-[(4S)-3,4-dihydro-2H-chromen-4-yl]-7-fluoroquinoline-3-carboxamide], the chromatographic logP in data set [4] came out at 3.18.

With `O=C(N[C@H]1CCOc2ccccc21)c1cnc2c(Br)c(F)ccc2c1N1CC(F)C1` [Intermediate 15A, 8-Bromo-N-[(4S)-3,4-dihydro-2H-chromen-4-yl]-7-fluoro-4-(3-fluoroazetidin-1-yl)quinoline-3-carboxamide], the chromatographic logP in data set [4] was 1.29.
